# Source: article PMC10882719 (Frontiers in Neuroscience, 2024)
# Like-named read-outs stand apart in the source and are kept apart here.
# What was measured:
# Type in all cases: cell-based
# 168 GPCRs [1] = target: T1, 168 GPCRs (Homo sapiens, UniProt P21453)
# T1 construct: host or cells: PathHunter cell lines
# 168 GPCRs [2] = target: T2, 168 GPCRs (Homo sapiens, UniProt P32239); details: CCKBR
# T2 construct: host or cells: PathHunter cell lines
# T2 sequence (P32239 1-447): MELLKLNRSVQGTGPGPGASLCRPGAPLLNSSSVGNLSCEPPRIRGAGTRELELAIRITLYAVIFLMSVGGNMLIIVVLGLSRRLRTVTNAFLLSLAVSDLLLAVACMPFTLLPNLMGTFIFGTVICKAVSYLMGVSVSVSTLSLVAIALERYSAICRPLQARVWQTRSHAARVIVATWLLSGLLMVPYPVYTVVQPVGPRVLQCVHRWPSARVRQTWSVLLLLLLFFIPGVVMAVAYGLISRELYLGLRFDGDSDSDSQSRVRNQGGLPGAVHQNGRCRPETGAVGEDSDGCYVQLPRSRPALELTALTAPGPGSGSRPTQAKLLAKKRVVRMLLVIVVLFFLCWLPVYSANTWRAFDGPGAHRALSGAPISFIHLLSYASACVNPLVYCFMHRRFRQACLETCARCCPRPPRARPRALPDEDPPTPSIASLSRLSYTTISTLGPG
# 168 GPCRs [3] = target: T3, 168 GPCRs (Homo sapiens, UniProt P35414)
# T3 construct: host or cells: PathHunter cell lines
# T3 sequence (P35414 1-380): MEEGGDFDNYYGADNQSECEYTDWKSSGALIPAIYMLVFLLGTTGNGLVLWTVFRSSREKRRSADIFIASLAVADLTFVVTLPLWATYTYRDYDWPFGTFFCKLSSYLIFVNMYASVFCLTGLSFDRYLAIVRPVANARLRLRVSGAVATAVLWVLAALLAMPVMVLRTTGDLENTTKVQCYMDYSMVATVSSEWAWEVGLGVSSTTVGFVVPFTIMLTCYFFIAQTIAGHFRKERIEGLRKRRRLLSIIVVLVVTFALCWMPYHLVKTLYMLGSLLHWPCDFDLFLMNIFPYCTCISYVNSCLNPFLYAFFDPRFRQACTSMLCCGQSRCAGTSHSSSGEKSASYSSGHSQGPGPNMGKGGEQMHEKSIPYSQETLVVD
# 168 GPCRs [4] = target: T4, 168 GPCRs (Homo sapiens, UniProt P41143); details: OPRD1
# T4 construct: host or cells: PathHunter cell lines
# 168 GPCRs [5] = target: T5, 168 GPCRs (Homo sapiens, UniProt P41586)
# T5 construct: host or cells: PathHunter cell lines
# T5 sequence (P41586 21-468): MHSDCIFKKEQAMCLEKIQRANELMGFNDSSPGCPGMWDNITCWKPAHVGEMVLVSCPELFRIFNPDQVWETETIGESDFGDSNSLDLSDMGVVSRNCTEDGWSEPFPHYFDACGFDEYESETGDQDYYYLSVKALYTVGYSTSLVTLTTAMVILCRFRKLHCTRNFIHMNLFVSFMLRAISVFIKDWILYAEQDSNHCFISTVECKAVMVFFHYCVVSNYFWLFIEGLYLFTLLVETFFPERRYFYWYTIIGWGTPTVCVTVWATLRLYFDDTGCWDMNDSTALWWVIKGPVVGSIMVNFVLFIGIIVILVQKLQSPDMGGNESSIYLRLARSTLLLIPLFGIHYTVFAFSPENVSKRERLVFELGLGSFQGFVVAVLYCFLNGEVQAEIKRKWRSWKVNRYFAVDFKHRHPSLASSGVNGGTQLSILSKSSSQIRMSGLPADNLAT
# 168 GPCRs [6] = target: T6, 168 GPCRs (Homo sapiens, UniProt Q96RI0)
# T6 construct: host or cells: PathHunter cell lines
# T6 sequence (Q96RI0 18-385): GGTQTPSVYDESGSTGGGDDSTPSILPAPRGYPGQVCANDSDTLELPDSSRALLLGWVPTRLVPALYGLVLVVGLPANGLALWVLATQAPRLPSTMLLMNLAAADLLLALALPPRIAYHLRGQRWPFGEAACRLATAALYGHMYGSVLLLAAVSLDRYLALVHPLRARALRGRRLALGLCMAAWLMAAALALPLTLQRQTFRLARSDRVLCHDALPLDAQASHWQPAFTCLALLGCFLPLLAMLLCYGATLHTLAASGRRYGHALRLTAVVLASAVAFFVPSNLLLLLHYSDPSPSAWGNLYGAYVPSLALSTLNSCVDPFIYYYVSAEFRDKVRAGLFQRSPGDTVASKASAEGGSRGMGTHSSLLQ
# 168 GPCRs [7] = target: T7, 168 GPCRs (Homo sapiens, UniProt Q9HBW0)
# T7 construct: host or cells: PathHunter cell lines
# T7 sequence (Q9HBW0 whole entry): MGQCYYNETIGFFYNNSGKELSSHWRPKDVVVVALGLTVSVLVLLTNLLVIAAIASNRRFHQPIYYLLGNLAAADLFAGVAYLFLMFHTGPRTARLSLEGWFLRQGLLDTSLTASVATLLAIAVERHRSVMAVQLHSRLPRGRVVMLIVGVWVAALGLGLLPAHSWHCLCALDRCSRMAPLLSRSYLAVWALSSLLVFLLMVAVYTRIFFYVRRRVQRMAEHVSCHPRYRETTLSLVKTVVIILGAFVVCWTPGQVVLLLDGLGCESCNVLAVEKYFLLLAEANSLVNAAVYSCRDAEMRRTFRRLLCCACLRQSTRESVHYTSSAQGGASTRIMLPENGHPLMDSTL
# T1 sequence (P21453 whole entry): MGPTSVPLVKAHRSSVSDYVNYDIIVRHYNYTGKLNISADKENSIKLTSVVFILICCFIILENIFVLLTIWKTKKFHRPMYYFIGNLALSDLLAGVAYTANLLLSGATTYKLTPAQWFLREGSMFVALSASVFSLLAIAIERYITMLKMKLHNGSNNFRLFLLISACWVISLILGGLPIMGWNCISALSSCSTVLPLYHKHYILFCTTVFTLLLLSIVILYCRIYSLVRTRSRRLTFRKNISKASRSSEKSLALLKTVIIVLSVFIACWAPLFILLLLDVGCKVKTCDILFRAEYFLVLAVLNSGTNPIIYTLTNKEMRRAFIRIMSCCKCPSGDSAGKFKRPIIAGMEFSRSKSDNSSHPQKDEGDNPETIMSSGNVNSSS
# T4 sequence (P41143 whole entry): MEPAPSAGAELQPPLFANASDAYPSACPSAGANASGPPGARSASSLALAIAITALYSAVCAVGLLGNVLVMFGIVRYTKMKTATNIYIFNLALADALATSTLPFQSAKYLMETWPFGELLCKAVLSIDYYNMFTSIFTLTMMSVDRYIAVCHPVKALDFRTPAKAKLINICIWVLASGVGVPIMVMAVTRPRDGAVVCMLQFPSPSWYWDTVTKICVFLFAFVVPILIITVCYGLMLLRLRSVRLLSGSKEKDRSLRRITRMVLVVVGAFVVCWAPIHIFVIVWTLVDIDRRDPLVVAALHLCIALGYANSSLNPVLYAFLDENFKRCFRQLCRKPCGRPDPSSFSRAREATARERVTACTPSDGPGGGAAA
SMILES,"% Agonist Activity (168 GPCRs [1]; EDG1, 1 uM)","% Antagonist Activity (168 GPCRs [1]; EDG1, 1 uM)","% Agonist Activity (168 GPCRs [1]; EDG1, 10 uM)","% Antagonist Activity (168 GPCRs [1]; EDG1, 10 uM)",% Agonist Activity (168 GPCRs [2]; 1 uM),% Antagonist Activity (168 GPCRs [2]; 1 uM),% Agonist Activity (168 GPCRs [2]; 10 uM),% Antagonist Activity (168 GPCRs [2]; 10 uM),"% Agonist Activity (168 GPCRs [3]; AGTRL1, 1 uM)","% Antagonist Activity (168 GPCRs [3]; AGTRL1, 1 uM)","% Agonist Activity (168 GPCRs [3]; AGTRL1, 10 uM)","% Antagonist Activity (168 GPCRs [3]; AGTRL1, 10 uM)",% Agonist Activity (168 GPCRs [4]; Conc 1 uM),% Antagonist Activity (168 GPCRs [4]; Conc 1 uM),% Agonist Activity (168 GPCRs [4]; Conc 10 uM),% Antagonist Activity (168 GPCRs [4]; Conc 10 uM),"% Agonist Activity (168 GPCRs [5]; ADCYAP1R1, 1 uM)","% Antagonist Activity (168 GPCRs [5]; ADCYAP1R1, 1 uM)","% Agonist Activity (168 GPCRs [5]; ADCYAP1R1, 10 uM)","% Antagonist Activity (168 GPCRs [5]; ADCYAP1R1, 10 uM)",other results
CNC(C)C(=O)c1ccc2c(c1)OCO2 (centres unmarked) [methylone],0.1%,12.4%,0.4%,10.5%,-1%,-1.1%,1.5%,-2.4%,-0.9%,-3.3%,-1.5%,-4.1%,-2%,-2.7%,-1.5%,3.5%,-4%,13.6%,-3%,12.5%,"% Agonist Activity (168 GPCRs [6]; F2RL3, 1 uM): 4.3%; % Antagonist Activity (168 GPCRs [6]; F2RL3, 1 uM): -11.3%; % Agonist Activity (168 GPCRs [6]; F2RL3, 10 uM): 7%; % Antagonist Activity (168 GPCRs [6]; F2RL3, 10 uM): -6.9%; % Agonist Activity (168 GPCRs [7]; EDG4, 1 uM): -2.2%; % Antagonist Activity (168 GPCRs [7]; EDG4, 1 uM): -10.2%; % Agonist Activity (168 GPCRs [7]; EDG4, 10 uM): -2.1%; % Antagonist Activity (168 GPCRs [7]; EDG4, 10 uM): -21%"
"CNC(C)Cc1ccc2c(c1)OCO2 (centres unmarked) [MDMA, 3,4-Methylenedioxy methamphetamine, reference compound]",0%,3.5%,-0.6%,-12.4%,2.3%,3.2%,1.2%,5.2%,-0.8%,-13.4%,-0.2%,-8.4%,-0.7%,-15.5%,-1.1%,-17.6%,-0.3%,-0.9%,-0.8%,-0.1%,"% Agonist Activity (168 GPCRs [6]; F2RL3, 1 uM): 10.8%; % Antagonist Activity (168 GPCRs [6]; F2RL3, 1 uM): 9.6%; % Agonist Activity (168 GPCRs [6]; F2RL3, 10 uM): 8.5%; % Antagonist Activity (168 GPCRs [6]; F2RL3, 10 uM): 13.3%; % Agonist Activity (168 GPCRs [7]; EDG4, 1 uM): 1.5%; % Antagonist Activity (168 GPCRs [7]; EDG4, 1 uM): 7.5%; % Agonist Activity (168 GPCRs [7]; EDG4, 10 uM): 2.2%; % Antagonist Activity (168 GPCRs [7]; EDG4, 10 uM): 10.2%"
